Test results: US6737383B1, “Herbicidal oxadiazolidines” (priority 1999, dated 2004)

Assays:
duck salad = assay: Test B flood test duck salad; assay type: in vivo, Heteranthera limosa
Summary of the method: (§1)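 Each value is a visual injury score relative to controls, with 10 meaning complete control and 0 no effect. Evaluation took place twelve to sixteen days after the 2-leaf-stage plants were treated and kept in the greenhouse.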

cocklebur = assay: Test B pre/postemergence cocklebur; assay type: in vivo, Xanthium strumarium
Summary of the method: (§2)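 Test chemicals in a non-phytotoxic solvent mixture with surfactant were sprayed preemergence onto planted seeds and postemergence onto plants 2 to 18 cm tall (1- to 4-leaf stage). After twelve to sixteen days in a greenhouse, injury was visually rated against untreated controls from 0 (no effect) to 10 (complete control).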

rape = assay: Test B pre/postemergence rape; assay type: in vivo, Brassica napus
Summary of the method: as §2

soybean = assay: Test B pre/postemergence soybean; assay type: in vivo, Glycine max
Summary of the method: as §2

corn = assay: Test B pre/postemergence corn; assay type: in vivo, Zea mays
Summary of the method: as §2

bamyardgrass = assay: Test B flood test barnyardgrass; assay type: in vivo, Echinochloa crus-galli
Summary of the method: as §1

purple nutsedge = assay: Test B pre/postemergence purple nutsedge; assay type: in vivo, Cyperus rotundus
Summary of the method: as §2

velvetleaf = assay: Test B pre/postemergence velvetleaf; assay type: in vivo, Abutilon theophrasti
Summary of the method: as §2

surinam grass = assay: Test B pre/postemergence surinam grass; assay type: in vivo, Brachiaria decumbens
Summary of the method: as §2

morningglory = assay: Test B pre/postemergence morningglory; assay type: in vivo, Ipomoea hederacea
Summary of the method: as §2

bedstraw = assay: Test B pre/postemergence bedstraw; assay type: in vivo, Galium aparine
Summary of the method: as §2

pigweed = assay: Test B pre/postemergence pigweed; assay type: in vivo, Amaranthus retroflexus
Summary of the method: as §2

smallflower flatsedge = assay: Test B flood test smallflower flatsedge; assay type: in vivo, Cyperus difformis
Summary of the method: as §1

giant foxtail = assay: Test B pre/postemergence giant foxtail; assay type: in vivo, Setaria faberii
Summary of the method: as §2

blackgrass = assay: Test B pre/postemergence blackgrass; assay type: in vivo, Alopecurus myosuroides
Summary of the method: as §2

sugar beet = assay: Test B pre/postemergence sugar beet; assay type: in vivo, Beta vulgaris
Summary of the method: as §2

[1] = Pre-emergence, Rate 1000 g/ha, scale 0 to 10 (0 no effect, 10 complete control)
[2] = Rate 62 g/ha, headed Pre-emergence (flood test species), scale 0 to 10 (0 no effect, 10 complete control)
[3] = Rate 125 g/ha, Pre-emergence, flood test species, scale 0 to 10 where 0 is no effect and 10 is complete control
[4] = Rate 250 g/ha, Pre-emergence, flood-test species, scale 0 to 10, 0 is no effect, 10 is complete control
[5] = Rate 500 g/ha, Pre-emergence, flood test species, scale 0 to 10 (0 no effect, 10 complete control)
[6] = Preemergence, Rate 62 g/ha, scale of 0 to 10 where 0 is no effect and 10 is complete control
[7] = Preemergence, Rate 250 g/ha, scale of 0 to 10 where 0 is no effect and 10 is complete control
[8] = Preemergence, Rate 500 g/ha, scale of 0 to 10 where 0 is no effect and 10 is complete control
[9] = Rate 62 g/ha, Postemergence, scale 0 to 10 (0 no effect, 10 complete control)
[10] = Rate 125 g/ha, Postemergence, scale of 0 to 10 where 0 is no effect and 10 is complete control
[11] = Rate 250 g/ha, Postemergence, scale of 0 to 10 where 0 is no effect and 10 is complete control
[12] = Rate 500 g/ha, Postemergence, scale 0 to 10, 0 no effect, 10 complete control

SMILES: CC(C)N(C(=O)n1oc(=O)n(C2CCOCC2)c1=O)c1ccc(F)cc1 [Compound 310]
- Ducksalad plant response rating (duck salad; [1]): 0
- Ducksalad plant response rating (duck salad; [2]): 0
- Ducksalad plant response rating (duck salad; [3]): 0
- Ducksalad plant response rating (duck salad; [4]): 0
- Ducksalad plant response rating (duck salad; [5]): 3
- Cocklebur plant response rating (cocklebur; [6]): 0
- Cocklebur plant response rating (0 to 10 scale) (cocklebur; Preemergence, Rate 125 g/ha): 0
- Cocklebur plant response rating (cocklebur; [7]): 2
- Cocklebur plant response rating (cocklebur; [8]): 4
- Cocklebur plant response rating (cocklebur; [9]): 0
- Cocklebur plant response rating (cocklebur; [10]): 0
- Plant response rating, Cocklebur (cocklebur; [11]): 2
- Cocklebur plant response rating (cocklebur; [12]): 7
- Rape plant response rating (rape; [6]): 5
- Rape plant response rating (0 to 10 scale) (rape; Preemergence, Rate 125 g/ha): 6
- Rape plant response rating (rape; [7]): 10
- Rape plant response rating (rape; [8]): 10
- Rape plant response rating (rape; [9]): 0
- Rape plant response rating (rape; [10]): 0
- Plant response rating, Rape (rape; [11]): 0
- Soybean plant response rating (soybean; [6]): 0
- Soybean plant response rating (0 to 10 scale) (soybean; Preemergence, Rate 125 g/ha): 0
- Soybean plant response rating (soybean; [7]): 2
- Soybean plant response rating (soybean; [8]): 5
- Soybean plant response rating (soybean; [9]): 4
- Soybean plant response rating (soybean; [10]): 4
- Plant response rating, Soybean (soybean; [11]): 4
- Corn plant response rating (corn; [6]): 0
- Corn plant response rating (0 to 10 scale) (corn; Preemergence, Rate 125 g/ha): 0
- Corn plant response rating (corn; [7]): 0
- Corn plant response rating (corn; [8]): 5
- Corn plant response rating (corn; [9]): 0
- Corn plant response rating (corn; [10]): 0
- Plant response rating, Corn (corn; [11]): 0
- Corn plant response rating (corn; [12]): 0
- Barnyardgrass plant response rating (bamyardgrass; [1]): 6
- Barnyardgrass plant response rating (bamyardgrass; [2]): 0
- Barnyardgrass plant response rating (bamyardgrass; [3]): 0
- Barnyardgrass plant response rating (bamyardgrass; [4]): 4
- Barnyardgrass plant response rating (bamyardgrass; [5]): 7
- Nutsedge plant response rating (purple nutsedge; [6]): 0
- Nutsedge plant response rating (0 to 10 scale) (purple nutsedge; Preemergence, Rate 125 g/ha): 0
- Nutsedge plant response rating (purple nutsedge; [7]): 10
- Nutsedge plant response rating (purple nutsedge; [8]): 10
- Nutsedge plant response rating (purple nutsedge; [9]): 2
- Nutsedge plant response rating (purple nutsedge; [10]): 3
- Plant response rating, Nutsedge (purple nutsedge; [11]): 6
- Velvetleaf plant response rating (velvetleaf; [6]): 2
- Velvetleaf plant response rating (0 to 10 scale) (velvetleaf; Preemergence, Rate 125 g/ha): 3
- Velvetleaf plant response rating (velvetleaf; [7]): 7
- Velvetleaf plant response rating (velvetleaf; [8]): 8
- Velvetleaf plant response rating (velvetleaf; [9]): 2
- Velvetleaf plant response rating (velvetleaf; [10]): 3
- Plant response rating, Velvetleaf (velvetleaf; [11]): 4
- B. signalgrass plant response rating (surinam grass; [6]): 4
- B. signalgrass plant response rating (0 to 10 scale, 0 is no effect, 10 is complete control) (surinam grass; Preemergence, Rate 125 g/ha): 4
- B. signalgrass plant response rating (surinam grass; [7]): 7
- B. signalgrass plant response rating (surinam grass; [8]): 8
- B. signalgrass plant response rating (surinam grass; [9]): 2
- B. signalgrass plant response rating (surinam grass; [10]): 3
- Plant response rating, B. signalgrass (surinam grass; [11]): 7
- B. signalgrass plant response rating (surinam grass; [12]): 7
- Morningglory plant response rating (morningglory; [6]): 2
- Morningglory plant response rating (0 to 10 scale) (morningglory; Preemergence, Rate 125 g/ha): 6
- Morningglory plant response rating (morningglory; [7]): 6
- Morningglory plant response rating (morningglory; [8]): 8
- Morningglory plant response rating (morningglory; [9]): 4
- Morningglory plant response rating (morningglory; [10]): 5
- Plant response rating, Morningglory (morningglory; [11]): 7
- Bedstraw plant response rating (bedstraw; [6]): 2
- Bedstraw plant response rating (0 to 10 scale) (bedstraw; Preemergence, Rate 125 g/ha): 3
- Bedstraw plant response rating (bedstraw; [7]): 5
- Bedstraw plant response rating (bedstraw; [8]): 10
- Bedstraw plant response rating (bedstraw; [9]): 4
- Bedstraw plant response rating (bedstraw; [10]): 4
- Plant response rating, Bedstraw (bedstraw; [11]): 7
- Bedstraw plant response rating (bedstraw; [12]): 5
- Redroot pigweed plant response rating (pigweed; [6]): 9
- Redroot pigweed plant response rating (0 to 10 scale) (pigweed; Preemergence, Rate 125 g/ha): 10
- Redroot pigweed plant response rating (pigweed; [7]): 10
- Redroot pigweed plant response rating (pigweed; [8]): 10
- Redroot pigweed plant response rating (pigweed; [9]): 0
- Redroot pigweed plant response rating (pigweed; [10]): 0
- Plant response rating, Redroot pigweed (pigweed; [11]): 3
- S. Flatsedge plant response rating (smallflower flatsedge; [1]): 0
- S. Flatsedge plant response rating (smallflower flatsedge; [2]): 0
- S. Flatsedge plant response rating (smallflower flatsedge; [3]): 0
- S. Flatsedge plant response rating (smallflower flatsedge; [4]): 0
- S. Flatsedge plant response rating (smallflower flatsedge; [5]): 3
- Giant foxtail plant response rating (giant foxtail; [6]): 10
- Giant foxtail plant response rating (0 to 10 scale) (giant foxtail; Preemergence, Rate 125 g/ha): 10
- Giant foxtail plant response rating (giant foxtail; [7]): 10
- Giant foxtail plant response rating (giant foxtail; [8]): 10
- Giant foxtail plant response rating (giant foxtail; [9]): 7
- Giant foxtail plant response rating (giant foxtail; [10]): 7
- Plant response rating, Giant foxtail (giant foxtail; [11]): 8
- Blackgrass plant response rating (blackgrass; [6]): 10
- Blackgrass plant response rating (0 to 10 scale) (blackgrass; Preemergence, Rate 125 g/ha): 10
- Blackgrass plant response rating (blackgrass; [7]): 10
- Blackgrass plant response rating (blackgrass; [8]): 10
- Blackgrass plant response rating (blackgrass; [9]): 5
- Blackgrass plant response rating (blackgrass; [10]): 7
- Plant response rating, Blackgrass (blackgrass; [11]): 9
- Blackgrass plant response rating (blackgrass; [12]): 9
- Sugarbeets plant response rating (sugar beet; [6]): 5
- Sugarbeets plant response rating (0 to 10 scale) (sugar beet; Preemergence, Rate 125 g/ha): 7
- Sugarbeets plant response rating (sugar beet; [7]): 10
- Sugarbeets plant response rating (sugar beet; [8]): 10
- Sugarbeets plant response rating (sugar beet; [9]): 0
- Sugarbeets plant response rating (sugar beet; [10]): 0
- Plant response rating, Sugarbeets (sugar beet; [11]): 2
